Measured values reported in PubChem BioAssay AID248 (DTP/NCI, 2004).
Where “and” joins values, the source holds several entries; their conditions need not be identical. Identical values can stand only once. Inconclusive results and toxic doses are left out.

Tested on: L1210 leukemia ip in BDF1 mice, survival T/C
Assay: NCI In Vivo Anticancer Drug Screen. Data for tumor model L1210 Leukemia (intraperitoneal) in B6D2F1 (BDF1) mice
Conditions: endpoint: mean survival time, higher = longer survival
Procedure, shortened: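 Tumor was transplanted into mice, which were then dosed with test compound or vehicle alone. Survival was recorded for each group, and the treated figure was expressed relative to the control figure.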

[1] = dose: 100.0 mg/kg/injection, schedule: Q01DX001 (ip), vehicle: Klucel (hydroxypropylcellulose) (HPC)
[2] = dose: 200.0 mg/kg/injection, schedule: Q01DX001 (ip), vehicle: Klucel (hydroxypropylcellulose) (HPC)
[3] = dose: 400.0 mg/kg/injection, schedule: Q01DX001 (ip), vehicle: Klucel (hydroxypropylcellulose) (HPC)
[4] = dose: 100.0 mg/kg/injection, schedule: Q01DX009 (ip), vehicle: Klucel (hydroxypropylcellulose) (HPC)
[5] = dose: 100.0 mg/kg/injection, schedule: Q04DX003 (ip), vehicle: Klucel (hydroxypropylcellulose) (HPC)
[6] = dose: 200.0 mg/kg/injection, schedule: Q01DX009 (ip), vehicle: Klucel (hydroxypropylcellulose) (HPC)
[7] = dose: 200.0 mg/kg/injection, schedule: Q04DX003 (ip), vehicle: Klucel (hydroxypropylcellulose) (HPC)
[8] = dose: 400.0 mg/kg/injection, schedule: Q01DX009 (ip), vehicle: Klucel (hydroxypropylcellulose) (HPC)
[9] = dose: 400.0 mg/kg/injection, schedule: Q04DX003 (ip), vehicle: Klucel (hydroxypropylcellulose) (HPC)
[10] = dose: 100.0 mg/kg/injection, schedule: Q04DX003 (ip), vehicle: saline with Tween-80
[11] = dose: 200.0 mg/kg/injection, schedule: Q04DX003 (ip), vehicle: saline with Tween-80
[12] = dose: 400.0 mg/kg/injection, schedule: Q04DX003 (ip), vehicle: saline with Tween-80
[13] = dose: 50.0 mg/kg/injection, schedule: Q01DX009 (ip), vehicle: saline
[14] = dose: 100.0 mg/kg/injection, schedule: Q01DX009 (ip), vehicle: saline
[15] = dose: 200.0 mg/kg/injection, schedule: Q01DX009 (ip), vehicle: saline
[16] = dose: 100.0 mg/kg/injection, schedule: Q01DX001 (ip), vehicle: saline
[17] = dose: 100.0 mg/kg/injection, schedule: Q01DX001 (ip), vehicle: carboxymethylcellulose (CMC)
[18] = dose: 200.0 mg/kg/injection, schedule: Q01DX001 (ip), vehicle: carboxymethylcellulose (CMC)
[19] = dose: 12.5 mg/kg/injection, schedule: Q01DX009 (ip), vehicle: saline
[20] = dose: 25.0 mg/kg/injection, schedule: Q01DX009 (ip), vehicle: saline
[21] = dose: 400.0 mg/kg/injection, schedule: Q01DX001 (ip), vehicle: saline

## C=C(C)COc1ccc(Nc2ccccc2)cc1
[1]
  T/C: 92 % of control
[2]
  T/C: 95 % of control
[3]
  T/C: 89 % of control

## COc1cccc(OC#N)c1OC
dose: 12.5 mg/kg/injection, schedule: Q01DX001 (ip), vehicle: Klucel (hydroxypropylcellulose) (HPC)
  T/C: 93 % of control
dose: 12.5 mg/kg/injection, schedule: Q01DX009 (ip), vehicle: Klucel (hydroxypropylcellulose) (HPC)
  T/C: 95 % of control
dose: 12.5 mg/kg/injection, schedule: Q04DX003 (ip), vehicle: Klucel (hydroxypropylcellulose) (HPC)
  T/C: 96 % of control
dose: 25.0 mg/kg/injection, schedule: Q01DX001 (ip), vehicle: Klucel (hydroxypropylcellulose) (HPC)
  T/C: 98 % of control
dose: 25.0 mg/kg/injection, schedule: Q01DX009 (ip), vehicle: Klucel (hydroxypropylcellulose) (HPC)
  T/C: 97 % of control
dose: 25.0 mg/kg/injection, schedule: Q04DX003 (ip), vehicle: Klucel (hydroxypropylcellulose) (HPC)
  T/C: 104 % of control
dose: 50.0 mg/kg/injection, schedule: Q01DX001 (ip), vehicle: Klucel (hydroxypropylcellulose) (HPC)
  T/C: 93 % of control
dose: 50.0 mg/kg/injection, schedule: Q04DX003 (ip), vehicle: Klucel (hydroxypropylcellulose) (HPC)
  T/C: 94 % of control

## Cc1cc(O)c(N=Nc2ccccc2)cc1C
[4]
  T/C: 102 % of control
[5]
  T/C: 101 % of control
[6]
  T/C: 96 % of control
[7]
  T/C: 96 % of control
[8]
  T/C: 96 % of control
[9]
  T/C: 92 % of control

## CC1(c2ccccc2)CC1(Br)Br (stereo unspecified)
dose: 100.0 mg/kg/injection, schedule: Q04DX002 (ip), vehicle: saline
  T/C: 95 % of control
dose: 200.0 mg/kg/injection, schedule: Q04DX002 (ip), vehicle: saline
  T/C: 95 % of control
dose: 400.0 mg/kg/injection, schedule: Q04DX002 (ip), vehicle: saline
  T/C: 100 % of control

## COc1ccc(Cl)cc1NS(=O)(=O)c1ccc(Cl)cc1
[4]
  T/C: 97 % of control
[6]
  T/C: 102 % of control
[8]
  T/C: 92 % of control

## COc1cc2ccnc(C(OC(=O)c3ccccc3)c3ccc(OCc4ccccc4)cc3)c2cc1OC (stereo unspecified)
[10]
  T/C: 95 % of control
[11]
  T/C: 88 % of control
[12]
  T/C: 95 % of control

## NC(=O)c1[nH]cnc1[N+]1=NN(c2ccccc2)CC1
[13]
  T/C: 102 % of control
[14]
  T/C: 94 % of control
[15]
  T/C: 102 % of control

## COc1cccc(CNCc2cccc(OC)c2O)c1O
[16]
  T/C: 96 % of control

## C=CCNc1ncnc2c1ncn2C1OC(CO)C(O)C1O (stereo unspecified)
dose: 9.5 mg/kg/injection, schedule: Q01DX001 (ip), vehicle: other
  T/C: 100 % of control
dose: 19.0 mg/kg/injection, schedule: Q01DX001 (ip), vehicle: other
  T/C: 97 % of control
dose: 33.0 mg/kg/injection, schedule: Q01DX009 (ip), vehicle: other
  T/C: 104 % of control
dose: 38.0 mg/kg/injection, schedule: Q01DX001 (ip), vehicle: other
  T/C: 94 % of control
dose: 112.0 mg/kg/injection, schedule: Q01DX009 (ip), vehicle: other
  T/C: 166 % of control

## COc1ccccc1CCCOC(=O)c1ccc([N+](=O)[O-])cc1
dose: 100.0 mg/kg/injection, schedule: Q01DX001 (ip), vehicle: saline with Tween-80
  T/C: 100 % of control
dose: 200.0 mg/kg/injection, schedule: Q01DX001 (ip), vehicle: saline with Tween-80
  T/C: 95 % of control
dose: 400.0 mg/kg/injection, schedule: Q01DX001 (ip), vehicle: saline with Tween-80
  T/C: 89 % of control

## CC(=O)c1cc(-c2ccccc2)nc2c(C)c(Cl)ccc12
[17]
  T/C: 90 % of control
[18]
  T/C: 92 % of control
dose: 400.0 mg/kg/injection, schedule: Q01DX001 (ip), vehicle: carboxymethylcellulose (CMC)
  T/C: 90 % of control

## COc1ccc(NC(=O)Oc2ccc(Cl)c(C)c2)c(OC)c1
[14]
  T/C: 118 % of control
[15]
  T/C: 114 % of control
dose: 400.0 mg/kg/injection, schedule: Q01DX009 (ip), vehicle: saline
  T/C: 108 % of control

## OCC1OC(Nc2ncnc3c2ncn3C2OC(CO)C(O)C2O)C(O)C1O (stereo unspecified)
dose: 12.5 mg/kg/injection, schedule: Q01DX005 (ip), vehicle: saline
  T/C: 96 % of control
[19]
  T/C: 100 % of control
dose: 25.0 mg/kg/injection, schedule: Q01DX005 (ip), vehicle: saline
  T/C: 104 % of control
[20]
  T/C: 103 % of control
dose: 50.0 mg/kg/injection, schedule: Q01DX005 (ip), vehicle: saline
  T/C: 117 % of control

## O=C(Cn1ccc(O)cc1=O)c1ccc(Cl)s1
dose: 100.0 mg/kg/injection, schedule: Q01DX009 (ip), vehicle: saline with Tween-80
  T/C: 111 % of control
[10]
  T/C: 98 % of control
dose: 200.0 mg/kg/injection, schedule: Q01DX009 (ip), vehicle: saline with Tween-80
  T/C: 90 % of control
[11]
  T/C: 93 % of control
dose: 400.0 mg/kg/injection, schedule: Q01DX009 (ip), vehicle: saline with Tween-80
  T/C: 91 % of control
[12]
  T/C: 98 % of control

## Fc1cccc(CSc2ncnc3nc[nH]c23)c1
[19]
  T/C: 104 % of control
[20]
  T/C: 119 % of control
[13]
  T/C: 120 % of control
dose: 175.0 mg/kg/injection, schedule: Q01DX001 (ip), vehicle: saline
  T/C: 105 % of control and 116 % of control
dose: 265.0 mg/kg/injection, schedule: Q01DX001 (ip), vehicle: saline
  T/C: 115 % of control
[21]
  T/C: 119 % of control

## COCn1c(C(=O)c2ccc(OC)cc2)cc2ccccc21
dose: 100.0 mg/kg/injection, schedule: Q04DX002 (ip), vehicle: Klucel (hydroxypropylcellulose) (HPC)
  T/C: 102 % of control
dose: 200.0 mg/kg/injection, schedule: Q04DX002 (ip), vehicle: Klucel (hydroxypropylcellulose) (HPC)
  T/C: 95 % of control
dose: 400.0 mg/kg/injection, schedule: Q04DX002 (ip), vehicle: Klucel (hydroxypropylcellulose) (HPC)
  T/C: 98 % of control

## O=C(c1ccccc1)c1ccc(Oc2ccccc2)cc1
dose: 100.0 mg/kg/injection, schedule: Q04DX003 (ip), vehicle: gum acacia
  T/C: 91 % of control
dose: 200.0 mg/kg/injection, schedule: Q04DX003 (ip), vehicle: gum acacia
  T/C: 97 % of control
dose: 400.0 mg/kg/injection, schedule: Q04DX003 (ip), vehicle: gum acacia
  T/C: 91 % of control

## Oc1c(Br)cc(F)cc1Br
dose: 100.0 mg/kg/injection, schedule: Q04DX002 (ip), vehicle: saline with Tween-80
  T/C: 98 % of control
dose: 200.0 mg/kg/injection, schedule: Q04DX002 (ip), vehicle: saline with Tween-80
  T/C: 94 % of control

## Cc1cc(=O)[nH]c2ccc(Cc3ccc4[nH]c(=O)cc(C)c4c3)cc12
[16]
  T/C: 102 % of control
dose: 200.0 mg/kg/injection, schedule: Q01DX001 (ip), vehicle: saline
  T/C: 102 % of control
[21]
  T/C: 107 % of control

## CN(C)c1ncnc2[nH]cc([N+](=O)[O-])c12
[17]
  T/C: 93 % of control
[18]
  T/C: 93 % of control

## O=S(=O)(Nc1cc(Cl)c(NS(=O)(=O)c2ccccc2)c(S(=O)(=O)c2ccccc2)c1Cl)c1ccccc1
[1]
  T/C: 97 % of control
[5]
  T/C: 101 % of control
[2]
  T/C: 93 % of control
[7]
  T/C: 102 % of control
[3]
  T/C: 97 % of control
[9]
  T/C: 106 % of control

## CCOC(=O)NNC(=O)c1ccccc1N(C)C
[4]
  T/C: 94 % of control
[5]
  T/C: 101 % of control
[6]
  T/C: 91 % of control
[7]
  T/C: 101 % of control
[8]
  T/C: 97 % of control
[9]
  T/C: 95 % of control
